Laboratory results taken from ChEMBL document CHEMBL4359905, “Discovery, structural insight, and bioactivities of BY27 as a selective inhibitor of the second bromodomains of BET proteins” (Eur J Med Chem, 2019).
Values belong to the compound of their own block, whether it stands above or below them.

Experiments:
[1] = target: T1, Bromodomain-containing protein 2 (Homo sapiens, UniProt P25440); assay: Binding affinity to human recombinant BRD2 BD1 (72 to 205 residues) by fluorescence polarization assay
Target sequence in this assay (P25440 whole entry, the tested form may be a part): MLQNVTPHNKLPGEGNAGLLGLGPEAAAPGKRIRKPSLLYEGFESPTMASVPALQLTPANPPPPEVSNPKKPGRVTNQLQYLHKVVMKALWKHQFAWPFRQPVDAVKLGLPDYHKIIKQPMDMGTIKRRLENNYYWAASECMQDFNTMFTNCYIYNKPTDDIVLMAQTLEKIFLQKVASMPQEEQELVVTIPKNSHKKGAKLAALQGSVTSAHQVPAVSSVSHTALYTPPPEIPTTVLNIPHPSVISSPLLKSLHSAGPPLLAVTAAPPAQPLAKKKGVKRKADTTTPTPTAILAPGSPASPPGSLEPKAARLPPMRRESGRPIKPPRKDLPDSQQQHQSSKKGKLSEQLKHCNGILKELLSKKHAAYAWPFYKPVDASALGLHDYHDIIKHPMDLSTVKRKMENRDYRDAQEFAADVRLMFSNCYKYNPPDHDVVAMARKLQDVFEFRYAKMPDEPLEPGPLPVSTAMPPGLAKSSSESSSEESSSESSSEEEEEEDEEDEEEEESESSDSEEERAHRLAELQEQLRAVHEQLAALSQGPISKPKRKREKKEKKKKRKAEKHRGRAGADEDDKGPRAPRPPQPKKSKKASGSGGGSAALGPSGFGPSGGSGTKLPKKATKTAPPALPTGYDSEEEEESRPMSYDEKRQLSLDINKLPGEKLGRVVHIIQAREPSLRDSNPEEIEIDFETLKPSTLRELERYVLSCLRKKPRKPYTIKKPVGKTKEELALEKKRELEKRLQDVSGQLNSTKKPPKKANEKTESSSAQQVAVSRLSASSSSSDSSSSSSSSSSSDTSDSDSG

[2] = Toxicity in BALB/c nu/nu mouse xenografted with human MV4-11 cells assessed as decrease in body weight at 150 mg/kg, po via gavage once daily for 21 days and measured every 2 to 3 days relative to control; format: organism-based; parameters: scale not given: the % may be the effect or the level left; conditions: in vivo
[3] = Clearance in ICR mouse at 5 mg/kg, iv measured upto 24 hrs by LC-MS/MS analysis; format: ADME, organism-based; conditions: in vivo
[4] = target: T2, Bromodomain testis-specific protein (Homo sapiens, UniProt Q58F21); assay: Binding affinity to human partial length BRDT bromodomain 2 isoform b (K250 to E382 residues) expressed in bacterial expression system by bromoscan assay
[5] = tested on: MV4-11; assay: Antitumour activity against human MV4-11 cells xenografted in BALB/c nu/nu mouse assessed as downregulation of c-Myc expression level in tumor tissue at 150 mg/kg, po administered via gavage as a single dose measured after 6 hrs by western blot analysis; format: functional; conditions: MV4-11, po
[6] = tested on: HepG2; assay: Downregulation of ARID5B in human HepG2 cells after 4 hrs by qRT-PCR analysis; format: functional, cell-based
[7] = target: T3, Bromodomain-containing protein 3 (Homo sapiens, UniProt Q15059); assay: Binding affinity to human partial length BRD3 BD2 (G306 to P416 residues) expressed in bacterial expression system by bromoscan assay
Target sequence in this assay (Q15059 whole entry, the tested form may be a part): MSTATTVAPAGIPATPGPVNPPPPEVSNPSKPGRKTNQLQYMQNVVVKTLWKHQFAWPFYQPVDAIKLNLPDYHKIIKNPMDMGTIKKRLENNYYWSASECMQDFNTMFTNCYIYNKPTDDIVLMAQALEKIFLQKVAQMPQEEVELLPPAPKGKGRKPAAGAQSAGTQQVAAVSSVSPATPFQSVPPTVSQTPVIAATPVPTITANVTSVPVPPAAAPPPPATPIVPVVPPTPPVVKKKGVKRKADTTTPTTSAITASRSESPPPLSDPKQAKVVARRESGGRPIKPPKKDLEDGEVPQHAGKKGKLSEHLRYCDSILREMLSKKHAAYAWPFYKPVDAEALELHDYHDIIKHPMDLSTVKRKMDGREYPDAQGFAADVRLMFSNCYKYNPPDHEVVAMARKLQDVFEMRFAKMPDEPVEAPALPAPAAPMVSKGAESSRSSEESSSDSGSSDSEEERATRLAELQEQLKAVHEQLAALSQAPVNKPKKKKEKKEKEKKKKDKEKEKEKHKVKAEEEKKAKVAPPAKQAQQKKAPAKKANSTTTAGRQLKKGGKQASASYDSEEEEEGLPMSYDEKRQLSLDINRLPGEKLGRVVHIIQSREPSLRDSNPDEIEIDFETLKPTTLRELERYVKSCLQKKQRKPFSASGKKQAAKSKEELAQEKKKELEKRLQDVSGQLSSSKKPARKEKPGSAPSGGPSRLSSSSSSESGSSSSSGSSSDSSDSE

[8] = target: T3, Bromodomain-containing protein 3; assay: Binding affinity to human partial length BRD3 BD1 (P24 to E144 residues) expressed in bacterial expression system by bromoscan assay
Target sequence in this assay (Q15059 whole entry, the tested form may be a part): as above

[9] = tested on: MV4-11; assay: Increase in p21 protein expression in human MV4-11 cells incubated for 24 hrs by western blot analysis; format: functional, cell-based
[10] = tested on: HepG2; assay: Downregulation of G6PC in human HepG2 cells after 4 hrs by qRT-PCR analysis; format: functional, cell-based
[11] = target: T3, Bromodomain-containing protein 3; assay: Binding affinity to human recombinant BRD3 BD1 (24 to 144 residues) by fluorescence polarization assay
Target sequence in this assay (Q15059 whole entry, the tested form may be a part): as above

[12] = tested on: MV4-11; assay: Antitumour activity against human MV4-11 cells xenografted in BALB/c nu/nu mouse assessed as tumour growth inhibition administered via oral gavage once daily for 21 days and measured every 2 to 3 days by vernier caliper method; format: functional, cell-based
[13] = tested on: MM1.S; assay: Antiproliferative activity against human MM1S cells assessed as cell growth inhibition after 4 days by CCK8 assay; format: functional, cell-based; conditions: 96 h
[14] = target: T2, Bromodomain testis-specific protein; assay: Binding affinity to human partial length BRDT bromodomain 1 isoform b (N21 to E137 residues) expressed in bacterial expression system by bromoscan assay
[15] = target: T1, Bromodomain-containing protein 2; assay: Binding affinity to human recombinant BRD2 BD2 (349 to 460 residues) by fluorescence polarization assay
Target sequence in this assay (P25440 whole entry, the tested form may be a part): as the sequence (P25440 whole entry, the tested form may be a part) above

[16] = tested on: MV4-11; assay: Antiproliferative activity against human MV4-11 cells assessed as cell growth inhibition after 4 days by CCK8 assay; format: functional, cell-based; conditions: MV4-11, 96 h
[17] = target: T1, Bromodomain-containing protein 2; assay: Binding affinity to human partial length BRD2 BD1 isoform 1 (K71 to N194 residues) expressed in bacterial expression system by bromoscan assay
Target sequence in this assay (P25440 whole entry, the tested form may be a part): as above

[18] = Cmax in ICR mouse at 15 mg/kg, po measured upto 24 hrs by LC-MS/MS analysis; format: ADME, organism-based; parameters: dose 15 mg/kg, route oral; conditions: in vivo
[19] = tested on: MV4-11; assay: Antitumour activity against human MV4-11 cells xenografted in BALB/c nu/nu mouse assessed as upregulation of p21 expression level in tumor tissue at 150 mg/kg, po administered via gavage as a single dose measured after 6 hrs by western blot analysis; format: functional
[20] = target: T2, Bromodomain testis-specific protein; assay: Selectivity ratio Kd for human partial length BRDT bromodomain 1 isoform b (N21 to E137 residues) expressed in bacterial expression system to Kd for human partial length BRDT bromodomain 2 isoform b (K250 to E382 residues) expressed in bacterial expression system
[21] = tested on: MV4-11; assay: Downregulation of p21 expression level in tumor tissue in BALB/c nu/nu mouse xenografted with human MV4-11 cells at 150 mg/kg, po administered via gavage as a single dose measured after 24 hrs by western blot analysis; format: functional; conditions: MV4-11, po
[22] = AUC (0 to t) in ICR mouse at 5 mg/kg, iv measured upto 24 hrs by LC-MS/MS analysis; format: ADME, organism-based; parameters: dose 5 mg/kg, time < 24 hr, route intravenous; conditions: in vivo
[23] = Volume of distribution at steady state in ICR mouse at 5 mg/kg, iv measured upto 24 hrs by LC-MS/MS analysis; format: ADME, organism-based; conditions: in vivo, read-out: Vdss
[24] = tested on: MV4-11; assay: Upregulation of p21 mRNA expression in human MV4-11 cells after 24 hrs by qRT-PCR analysis; format: functional, cell-based
[25] = target: T4, Bromodomain-containing protein 4 (Homo sapiens, UniProt O60885); assay: Selectivity ratio of Kd for human partial length BRD4 BD1 isoform long (N44 to E168 residues) expressed in bacterial expression system to Kd for human partial length BRD4 BD2 isoform long (K333 to E460 residues) expressed in bacterial expression system
[26] = tested on: MV4-11; assay: Antitumour activity against human MV4-11 cells xenografted in BALB/c nu/nu mouse assessed as tumour growth inhibition at 60 mg/kg, po via gavage administered once daily for 21 days and measured every 2 to 3 days by vernier caliper method relative to control; format: functional; conditions: MV4-11, po, read-out: GI
[27] = target: T3, Bromodomain-containing protein 3; assay: Selectivity ratio of Kd for human partial length BRD3 BD1 (P24 to E144 residues) expressed in bacterial expression system to Kd for human partial length BRD3 BD2 (G306 to P416 residues) expressed in bacterial expression system
Target sequence in this assay (Q15059 2-726 limits assumed): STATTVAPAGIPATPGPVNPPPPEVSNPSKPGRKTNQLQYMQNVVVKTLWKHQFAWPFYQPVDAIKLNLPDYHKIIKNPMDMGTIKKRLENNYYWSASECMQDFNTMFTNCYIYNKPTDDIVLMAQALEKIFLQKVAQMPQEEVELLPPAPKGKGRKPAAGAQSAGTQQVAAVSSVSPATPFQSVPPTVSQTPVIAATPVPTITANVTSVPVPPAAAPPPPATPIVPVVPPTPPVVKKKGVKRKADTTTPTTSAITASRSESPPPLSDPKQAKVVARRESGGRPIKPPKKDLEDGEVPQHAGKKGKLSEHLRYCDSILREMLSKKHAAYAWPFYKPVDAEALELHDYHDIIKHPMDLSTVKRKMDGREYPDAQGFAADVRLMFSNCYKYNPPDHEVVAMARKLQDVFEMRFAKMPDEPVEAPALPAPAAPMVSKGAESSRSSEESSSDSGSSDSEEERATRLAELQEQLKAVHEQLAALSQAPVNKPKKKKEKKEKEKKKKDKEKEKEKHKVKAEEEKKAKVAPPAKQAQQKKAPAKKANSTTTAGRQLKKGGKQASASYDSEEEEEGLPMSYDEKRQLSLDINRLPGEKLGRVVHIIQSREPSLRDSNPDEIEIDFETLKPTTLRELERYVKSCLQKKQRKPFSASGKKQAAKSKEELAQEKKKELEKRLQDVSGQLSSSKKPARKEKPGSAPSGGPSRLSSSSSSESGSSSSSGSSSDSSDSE

[28] = target: T3, Bromodomain-containing protein 3; assay: Binding affinity to human recombinant BRD3 BD2 (306 to 417 residues) by fluorescence polarization assay
Target sequence in this assay (Q15059 whole entry, the tested form may be a part): as the sequence (Q15059 whole entry, the tested form may be a part) above

[29] = target: T3, Bromodomain-containing protein 3; assay: Selectivity index, ratio of Ki for human recombinant BRD3 BD1 (24 to 144 residues) to Ki for human recombinant BRD3 BD2 (306 to 417 residues)
Target sequence in this assay (Q15059 2-726 limits assumed): as the sequence (Q15059 2-726 limits assumed) above

[30] = tested on: MV4-11; assay: Antitumour activity against human MV4-11 cells xenografted in BALB/c nu/nu mouse assessed as downregulation of c-Myc expression level in tumor tissue at 150 mg/kg, po administered via gavage as a single dose measured after 24 hrs by western blot analysis; format: functional; conditions: MV4-11, po
[31] = target: T4, Bromodomain-containing protein 4; assay: Binding affinity to human partial length BRD4 BD1 isoform long (N44 to E168 residues) expressed in bacterial expression system by bromoscan assay
[32] = Cmax in ICR mouse at 5 mg/kg, iv measured upto 24 hrs by LC-MS/MS analysis; format: ADME, organism-based; parameters: dose 5 mg/kg, route intravenous; conditions: in vivo
[33] = tested on: MV4-11; assay: Antitumour activity against human MV4-11 cells xenografted in BALB/c nu/nu mouse assessed as tumour growth inhibition at 150 mg/kg, po via gavage administered once daily for 21 days and measured every 2 to 3 days by vernier caliper method relative to control; format: functional; conditions: MV4-11, po, read-out: GI
[34] = Half-life in ICR mouse at 5 mg/kg, iv measured upto 24 hrs by LC-MS/MS analysis; format: ADME, organism-based; conditions: in vivo
[35] = target: T4, Bromodomain-containing protein 4; assay: Binding affinity to human recombinant BRD4 BD2 (333 to 460 residues) by fluorescence polarization assay
[36] = tested on: HepG2; assay: Downregulation of […] in human HepG2 cells after 4 hrs by qRT-PCR analysis; format: functional, cell-based
[37] = target: T4, Bromodomain-containing protein 4; assay: Binding affinity to human partial length BRD4 BD2 isoform long (K333 to E460 residues) expressed in bacterial expression system by bromoscan assay
[38] = AUC (0 to t) in ICR mouse at 15 mg/kg, po measured upto 24 hrs by LC-MS/MS analysis; format: ADME, organism-based; parameters: time < 24 hr, dose 15 mg/kg, route oral; conditions: in vivo
[39] = Oral bioavailability in ICR mouse at 15 mg/kg measured upto 24 hrs by LC-MS/MS analysis; format: ADME, organism-based; conditions: in vivo
[40] = target: T4, Bromodomain-containing protein 4; assay: Binding affinity to human recombinant BRD4 BD1 (44 to 168 residues) by fluorescence polarization assay
[41] = target: T1, Bromodomain-containing protein 2; assay: Selectivity ratio of Kd for human partial length BRD2 BD1 isoform 1 (K71 to N194 residues) expressed in bacterial expression system to Kd for human partial length BRD2 BD2 isoform 1 (E348 to D455 residues) expressed in bacterial expression system
Target sequence in this assay (P25440 whole entry, looked up, the tested form may be a part): as the sequence (P25440 whole entry, the tested form may be a part) above

[42] = tested on: MV4-11; assay: Downregulation of cMyc mRNA expression in human MV4-11 cells after 24 hrs by qRT-PCR analysis; format: functional, cell-based
[43] = Half-life in ICR mouse at 15 mg/kg, po measured upto 24 hrs by LC-MS/MS analysis; format: ADME, organism-based; conditions: in vivo
[44] = target: T1, Bromodomain-containing protein 2; assay: Binding affinity to human partial length BRD2 BD2 isoform 1 (E348 to D455 residues) expressed in bacterial expression system by bromoscan assay
Target sequence in this assay (P25440 whole entry, the tested form may be a part): as above

[45] = tested on: MV4-11; assay: Decrease in c-Myc protein expression in human MV4-11 cells incubated for 24 hrs by western blot analysis; format: functional, cell-based
[46] = tested on: MV4-11; assay: Antitumour activity against human MV4-11 cells xenografted in BALB/c nu/nu mouse assessed as tumour growth inhibition at 100 mg/kg, po via gavage administered once daily for 21 days and measured every 2 to 3 days by vernier caliper method relative to control; format: functional; conditions: MV4-11, po, read-out: GI
[47] = Toxicity in BALB/c nu/nu mouse xenografted with human MV4-11 cells assessed as decrease in body weight at 60 mg/kg, po via gavage once daily for 6 days and measured every 2 to 3 days relative to control; format: organism-based; parameters: scale not given: the % may be the effect or the level left; conditions: in vivo

Ki [1]: 95.5 nM | clearance [3]: 25 mL/min/kg | Kd [4]: 3 nM | Kd [7]: 2.6 nM | Kd [8]: 12 nM | Ki [11]: 77.9 nM | IC50 [13]: 16.7 nM | Kd [14]: 64 nM | Ki [15]: 3.1 nM | IC50 [16]: 27 nM | Kd [17]: 45 nM | Cmax [18]: 2210 ng/mL | Selectivity ratio [20]: 21 | AUC(0-t) at 24 h [22]: 3320 ng·h/mL | Vd [23]: 0.94 L/kg | Selectivity ratio [25]: 7 | Selectivity ratio [27]: 5 | Ki [28]: 5.3 nM | Ratio Ki [29]: 15 | Kd [31]: 26 nM | Cmax [32]: 5420 ng/mL | half-life [34]: 34.8 min | Ki [35]: 7.3 nM | Kd [37]: 3.5 nM | AUC(0-t) at 24 h [38]: 5890 ng·h/mL | bioavailability [39]: 59.1% | Ki [40]: 80 nM | Selectivity ratio [41]: 38 | half-life [43]: 57 min | Kd [44]: 1.2 nM
Structure (SMILES): Cc1nnc2n1-c1ccc(-c3cnn(C)c3)cc1[C@H](Nc1ccc(Cl)cc1)CC2
Activity [2]: 7% | inhibition in vivo at 150 mg/kg [5]: 30% | inhibition [6]: Dose-dependent effect | Activity [9]: Dose-dependent effect | inhibition [10]: Dose-dependent effect | inhibition [12]: Dose-dependent effect | Activity [19]: 46% | inhibition in vivo at 150 mg/kg [21]: 18% | Activity [24]: Dose-dependent effect | inhibition in vivo at 60 mg/kg [26]: 47% | inhibition in vivo at 150 mg/kg [30]: 43% | inhibition in vivo at 150 mg/kg [33]: 67% | inhibition [36]: Dose-dependent effect | inhibition [42]: Dose-dependent effect | inhibition [45]: Dose-dependent effect | inhibition in vivo at 100 mg/kg [46]: 58%

Structure (SMILES): CCNC(=O)C[C@@H]1N=C(c2ccc(Cl)cc2)c2cc(OC)ccc2-n2c(C)nnc21 [MOLIBRESIB]
Activity [47]: 11%
